Molecular target: T1, Prolyl endopeptidase FAP (Homo sapiens, UniProt Q12884)
T1 sequence (Q12884 whole entry): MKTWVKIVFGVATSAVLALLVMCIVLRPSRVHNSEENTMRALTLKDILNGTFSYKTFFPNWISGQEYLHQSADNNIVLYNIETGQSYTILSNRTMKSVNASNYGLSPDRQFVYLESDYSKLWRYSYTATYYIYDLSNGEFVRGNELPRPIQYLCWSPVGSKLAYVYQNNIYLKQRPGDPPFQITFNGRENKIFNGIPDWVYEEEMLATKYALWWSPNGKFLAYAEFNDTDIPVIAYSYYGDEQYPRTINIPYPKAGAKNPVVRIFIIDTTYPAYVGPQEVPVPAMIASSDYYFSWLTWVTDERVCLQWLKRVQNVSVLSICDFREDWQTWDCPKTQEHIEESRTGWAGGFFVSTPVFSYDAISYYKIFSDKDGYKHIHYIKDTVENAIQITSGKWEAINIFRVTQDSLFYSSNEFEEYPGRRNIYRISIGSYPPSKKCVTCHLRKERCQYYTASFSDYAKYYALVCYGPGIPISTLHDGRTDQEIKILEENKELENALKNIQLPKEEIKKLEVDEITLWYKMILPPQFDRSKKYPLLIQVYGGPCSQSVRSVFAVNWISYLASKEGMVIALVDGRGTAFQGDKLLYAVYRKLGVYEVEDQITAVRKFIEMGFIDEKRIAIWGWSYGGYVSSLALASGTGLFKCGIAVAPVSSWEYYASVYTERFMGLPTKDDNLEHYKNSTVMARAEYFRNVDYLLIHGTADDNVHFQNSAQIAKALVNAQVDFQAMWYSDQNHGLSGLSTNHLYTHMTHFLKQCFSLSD
Assay: hFAP Binding Assay
Conditions: for kon: read-out: kon (M-1-s-1)
Protocol: Table 1: Compounds were tested in a direct binding assay using 8K surface plasmon resonance biosensor (GE Healthcare) at 20° C. Immobilization of hFAP (M39-A757) on a CMD200M sensor chip (Xantec) was performed using standard amine coupling procedure in immobilization buffer (10 mM HEPES, 150 mM NaCl, 0.05% Tween20, pH 7.4). The surface was washed with 10 mM NaOH, 1M NaCl before being activated with EDC/NHS (GE Healthcare), followed by immobilization of hFAP (in 10 mM Acetate pH 5.0). Finally, the surface was deactivated by ethanolamine. Immobilization levels of hFAP were around 4000-6000 RU. The reference spot was treated as described, omitting the injection of hFAP. Compound concentration series were injected over the immobilized protein in increasing concentrations (2-500 nM) using single cycle kinetics in running buffer (20 mM TRIS, 150 mM NaCl, 0.05% Tween20, 1% DMSO, pH 7.4).

SMILES | koff [s⁻¹] | kon [M⁻¹ s⁻¹]
N#C[C@@H]1CSCN1C(=O)CNC(=O)c1ccnc2ccc(N3C[C@@H]4CCC[C@@H]43)cc12 (mixture of isomers) [US20230312550, Example 156] | 6.6e-05 | 1.2e+06
C[C@H]1CCN(c2ccc3nccc(C(=O)NCC(=O)N4CSC[C@H]4C#N)c3c2)C1=O (single isomer, unassigned) [US20230312550, Example 201] | 0.0001 | 1.8e+06
N#C[C@@H]1CSCN1C(=O)CNC(=O)c1ccnc2ccc(N3CCCCO3)cc12 [US20230312550, Example 1] | 0.00014 | 730000
N#C[C@@H]1CSCN1C(=O)CNC(=O)c1c(F)cnc2ccc(N3CCOCC3)cc12 [US20230312550, Example 2] | 0.0038 | 410000
N#C[C@@H]1CSCN1C(=O)CNC(=O)c1ccnc2ccc(N3CCSCC3)cc12 [US20230312550, Example 3] | 0.0004 | 4.1e+06
C[C@@H]1CN(c2ccc3nccc(C(=O)NCC(=O)N4CSC[C@H]4C#N)c3c2)C[C@H](C)[C@@H]1O [US20230312550, Example 7] | 7.5e-05 | 740000
Cc1cc2nccc(C(=O)NCC(=O)N3CSC[C@H]3C#N)c2cc1N1CCOCC1 [US20230312550, Example 10] | 5.6e-05 | 370000
CC1(C)CCN(c2ccc3nccc(C(=O)NCC(=O)N4CSC[C@H]4C#N)c3c2)C1=O [US20230312550, Example 12] | 6.4e-05 | 1.9e+06
CC1(C)OCCN(c2ccc3nccc(C(=O)NCC(=O)N4CSC[C@H]4C#N)c3c2)C1=O [US20230312550, Example 16] | 4.1e-05 | 740000
N#C[C@@H]1CSCN1C(=O)CNC(=O)c1ccnc2ccc(N3CC4(CCC4)C3)cc12 [US20230312550, Example 17] | 0.00012 | 8.3e+06
N#C[C@@H]1CSCN1C(=O)CNC(=O)c1ccnc2ccc(N3CCC34CCC4)cc12 [US20230312550, Example 19] | 6.6e-05 | 430000
CC1(C)CCN1c1ccc2nccc(C(=O)NCC(=O)N3CSC[C@H]3C#N)c2c1 [US20230312550, Example 20] | 0.00012 | 4.2e+06
N#C[C@@H]1CSCN1C(=O)CNC(=O)c1ccnc2ccc(N3CC(F)C3)cc12 [US20230312550, Example 21] | 0.0002 | 3e+06
N#C[C@@H]1CSCN1C(=O)CNC(=O)c1ccnc2ccc(N3CC(F)(F)C3)cc12 [US20230312550, Example 23] | 0.00018 | 2.1e+06
N#C[C@@H]1CSCN1C(=O)CNC(=O)c1ccnc2ccc(N3CC(C(F)(F)F)C3)cc12 [US20230312550, Example 26] | 6.5e-05 | 1.3e+06
COCC1(C)CN(c2ccc3nccc(C(=O)NCC(=O)N4CSC[C@H]4C#N)c3c2)C1 [US20230312550, Example 29] | 6.1e-05 | 1.1e+06

SMILES | koff [s⁻¹] | kon [M⁻¹ s⁻¹]
CO[C@@H]1CN(c2ccc3nccc(C(=O)NCC(=O)N4CSC[C@H]4C#N)c3c2)[C@H]1C [US20230312550, Example 30] | 0.00022 | 5.2e+06
N#C[C@@H]1CSCN1C(=O)CNC(=O)c1ccnc2ccc(N3CC(F)(C4CC4)C3)cc12 [US20230312550, Example 31] | 0.00024 | 9.7e+06
N#C[C@@H]1CSCN1C(=O)CNC(=O)c1ccnc2ccc(N3CCCCC3)cc12 [US20230312550, Example 32] | 2.9e-05 | 1.3e+06
CC1(C)CCN(c2ccc3nccc(C(=O)NCC(=O)N4CSC[C@H]4C#N)c3c2)CC1 [US20230312550, Example 33] | 5.2e-05 | 1.1e+06
CC1(F)CCN(c2ccc3nccc(C(=O)NCC(=O)N4CSC[C@H]4C#N)c3c2)CC1 [US20230312550, Example 34] | 8.2e-05 | 2.2e+06
CC1(C)CN(c2ccc3nccc(C(=O)NCC(=O)N4CSC[C@H]4C#N)c3c2)CCC1(F)F [US20230312550, Example 38] | 7.8e-05 | 520000
CO[C@H]1CCCN(c2ccc3nccc(C(=O)NCC(=O)N4CSC[C@H]4C#N)c3c2)C1 [US20230312550, Example 41] | 6.4e-05 | 680000
CC(C)OC1CCN(c2ccc3nccc(C(=O)NCC(=O)N4CSC[C@H]4C#N)c3c2)CC1 [US20230312550, Example 43] | 1.9e-05 | 3.2e+06
C[C@H]1CC(F)(F)CCN1c1ccc2nccc(C(=O)NCC(=O)N3CSC[C@H]3C#N)c2c1 [US20230312550, Example 44] | 7.2e-05 | 1.7e+06
N#C[C@@H]1CSCN1C(=O)CNC(=O)c1ccnc2ccc(N3CCCC[C@H]3CF)cc12 [US20230312550, Example 45] | 0.00018 | 5.4e+06
N#C[C@@H]1CSCN1C(=O)CNC(=O)c1ccnc2ccc(N3CCCC4(CC4)C3)cc12 [US20230312550, Example 46] | 6.2e-05 | 3e+06
CC1(C)CCN(c2ccc3nccc(C(=O)NCC(=O)N4CSC[C@H]4C#N)c3c2)C1 [US20230312550, Example 48] | 8.9e-05 | 1.4e+06
C[C@H]1CCN(c2ccc3nccc(C(=O)NCC(=O)N4CSC[C@H]4C#N)c3c2)C1 [US20230312550, Example 54] | 0.00023 | 6.2e+06
C[C@@H]1CCN(c2ccc3nccc(C(=O)NCC(=O)N4CSC[C@H]4C#N)c3c2)C1 [US20230312550, Example 55] | 0.00025 | 6.7e+06
CC1(C)CCCN1c1ccc2nccc(C(=O)NCC(=O)N3CSC[C@H]3C#N)c2c1 [US20230312550, Example 57] | 0.00018 | 8e+06

More lines, now with the values ahead:

koff [s⁻¹] | kon [M⁻¹ s⁻¹] | SMILES
9.8e-05 | 3.8e+06 | N#C[C@@H]1CSCN1C(=O)CNC(=O)c1ccnc2ccc(N3C[C@@H]4CC[C@H]3C4)cc12 (mixture of isomers) [US20230312550, Example 210]
9.4e-05 | 1.2e+06 | N#C[C@@H]1CSCN1C(=O)CNC(=O)c1ccnc2ccc(N3CCOC(F)(F)C3)cc12 [US20230312550, Example 4]
18 |  | N#C[C@@H]1CSCN1C(=O)CNC(=O)c1ccnc2ccc(N3CCOc4ccccc43)cc12 [US20230312550, Example 6]
7.6e-05 | 9.2e+06 | CC1(C)CN(c2ccc3nccc(C(=O)NCC(=O)N4CSC[C@H]4C#N)c3c2)C(=O)O1 [US20230312550, Example 13]
6.4e-05 | 1.3e+06 | N#C[C@@H]1CSCN1C(=O)CNC(=O)c1ccnc2ccc(N3CCCCC3=O)cc12 [US20230312550, Example 14]
4.6e-05 | 490000 | CC1(C)CCCN(c2ccc3nccc(C(=O)NCC(=O)N4CSC[C@H]4C#N)c3c2)C1=O [US20230312550, Example 15]
5.9e-05 | 1.4e+06 | CC1(C)COC12CN(c1ccc3nccc(C(=O)NCC(=O)N4CSC[C@H]4C#N)c3c1)C2 [US20230312550, Example 18]
0.00011 | 1.4e+06 | CC1CN(c2ccc3nccc(C(=O)NCC(=O)N4CSC[C@H]4C#N)c3c2)C1 [US20230312550, Example 25]
0.00011 | 1.1e+06 | N#C[C@@H]1CSCN1C(=O)CNC(=O)c1ccnc2ccc(N3CC(C(F)F)C3)cc12 [US20230312550, Example 28]
0.0001 | 900000 | N#C[C@@H]1CSCN1C(=O)CNC(=O)c1ccnc2ccc(N3CCC(F)(F)CC3)cc12 [US20230312550, Example 35]
9e-05 | 3e+06 | N#C[C@@H]1CSCN1C(=O)CNC(=O)c1ccnc2ccc(N3CCCC(F)(F)C3)cc12 [US20230312550, Example 36]
3e-05 | 1e+06 | CC1(CF)CCN(c2ccc3nccc(C(=O)NCC(=O)N4CSC[C@H]4C#N)c3c2)CC1 [US20230312550, Example 37]
0.00016 | 4.9e+06 | N#C[C@@H]1CSCN1C(=O)CNC(=O)c1ccnc2ccc(N3CCC(C(F)(F)F)CC3)cc12 [US20230312550, Example 39]
5.4e-05 | 1.8e+06 | COC1(C)CCN(c2ccc3nccc(C(=O)NCC(=O)N4CSC[C@H]4C#N)c3c2)CC1 [US20230312550, Example 42]
0.00017 | 8.8e+06 | N#C[C@@H]1CSCN1C(=O)CNC(=O)c1ccnc2ccc(N3CCC4(CC4)C3)cc12 [US20230312550, Example 49]
0.00011 | 5.6e+06 | N#C[C@@H]1CSCN1C(=O)CNC(=O)c1ccnc2ccc(N3CC[C@H](F)C3)cc12 [US20230312550, Example 51]
0.00019 | 6.8e+06 | N#C[C@@H]1CSCN1C(=O)CNC(=O)c1ccnc2ccc(N3CC[C@@H](F)C3)cc12 [US20230312550, Example 52]
5e-05 | 680000 | N#C[C@@H]1CSCN1C(=O)CNC(=O)c1ccnc2ccc(N3CC4CCCC4C3)cc12 (stereo partly specified) [US20230312550, Example 53]
0.00011 | 540000 | N#C[C@@H]1CSCN1C(=O)CNC(=O)c1ccnc2ccc(N3CCC[C@H]3C(F)(F)F)cc12 [US20230312550, Example 56]
0.091 | 8.8e+09 | N#C[C@@H]1CSCN1C(=O)CNC(=O)c1ccnc2ccc(N3CC4(CC4)C[C@@H]3CF)cc12 [US20230312550, Example 58]

From BindingDB's records for patent US20230312550 (Astrazeneca, 2023)
